Reference: the supplement of paper PMC10307832

Compound: Cn1cc(-c2cnn3c(N)c(Br)c([C@@H]4CCCNC4)nc23)cn1 + CC(=O)Nc1cccc(-n2c(=O)n(C3CC3)c(=O)c3c(Nc4ccc(I)cc4F)n(C)c(=O)c(C)c32)c1 [Trametinib] (partner 0.02 µM)
Test: relative viability (nuclei count vs DMSO), 5 days (fraction); higher = more cells survive
Procedure, shortened: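 After 5 days of treatment, lung cancer cells in 1536-well plates were fixed and stained in a single step (final 0.05% Triton X-100, 1% formaldehyde, 1 ug/ml Hoechst) and their nuclei counted on 4× images. Treatment had been applied by pin tool the day after seeding as one drug alone or as a fixed anchor-drug dose with five library-drug doses (not always all listed) in √10 steps. Relative viability is the nuclei count of treated wells divided by that of vehicle wells, and values are medians of duplicate plates.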

Cell Line	relative viability (first compound 0.05 µM)	relative viability (first compound 0.1581 µM)	relative viability (first compound 0.5 µM)	relative viability (first compound 1.581 µM)	relative viability (first compound 5 µM)
NCI-H727	0.394	0.412	0.366	0.404	0.348
NCI-H838	0.501	0.521	0.496	0.505	0.471
NCI-H1355	0.369	0.426	0.433	0.491	0.417
NCI-H1395	1.22	0.544	0.883	0.569	0.444
NCI-H1437	0.504	0.611	0.562	0.428	0.355
NCI-H1648	0.443	0.478	0.421	0.435	0.515
NCI-H1650	0.559	0.551	0.487	0.405	0.428
NCI-H1651	0.885	0.925	0.88	0.857	0.461
NCI-H1666	0.92	0.867	0.892	0.959	0.71
NCI-H1734	0.667	0.802	0.665	0.658	0.576
NCI-H1755	0.783	0.802	0.744	0.782	0.765
NCI-H1792	0.409	0.6	0.536		0.513
NCI-H1793	0.451	0.36	0.367	0.481	0.458
NCI-H1915	0.479	0.313	0.304	0.347	0.301
NCI-H1944	0.406	0.382	0.39	0.374	0.379
NCI-H1975	0.356	0.328	0.326	0.331	0.239
NCI-H1993	0.518	0.467	0.643	0.435	0.511
NCI-H2009	0.272	0.284	0.271	0.252	0.224

Cell Line	relative viability (first compound 0.05 µM)	relative viability (first compound 0.1581 µM)	relative viability (first compound 0.5 µM)	relative viability (first compound 1.581 µM)	relative viability (first compound 5 µM)
NCI-H2023	0.606	0.336	0.416	0.227	0.185
NCI-H2085	0.532	0.664	0.548	0.484	0.287
NCI-H2087	0.151	0.203	0.178	0.164	0.189
NCI-H2126	0.628	0.549	0.548	0.561	0.597
NCI-H2170	0.973	0.93	0.927	0.763	1.13
NCI-H2228	0.717	0.563	0.5	0.282	0.239
NCI-H2342	0.801	0.9	0.682	0.835	0.777
NCI-H2347	0.272	0.285	0.298	0.251	0.232
NCI-H2405	0.642	0.644	0.553	0.577	0.455
NCI-H3122	0.267	0.236	0.212	0.223	0.257
PC-3 [JPC-3]	0.693	0.705		0.642	0.608
PC-14	0.816	0.929	0.581	0.337	0.272
RERF-LC-KJ	0.88	0.839	0.835	0.8	0.657
SK-LU-1	0.616	0.423	0.422	0.328	0.292
SK-MES-1	0.595	0.567	0.607	0.346	0.222
SW 1573	0.538	0.642	0.558	0.506	0.516
UMC-11	0.753	0.684	0.502	0.579	0.402
